Test results published in patent publication US7557099B2, “Pyrrolobenzodiazepines as key intermediates in the synthesis of dimeric cytotoxic pyrrolobenzodiazepines” (Spirogen Limited, priority 2004, dated 2009).
Like-named read-outs stand apart in the source and are kept apart here.

Experiments:
linear pBR322 DNA = assay: DNA cross-linking, electrophoretic assay (XL50); format: biochemical; details: concentration giving 50% cross-linked plasmid DNA; 2 hours, 37° C., pH 7.2
Description: The extent of DNA cross-linking induced by each PBD dimer was determined using the electrophoretic assay method of Hartley, et al. (Hartley, J. A., Berardini, M. D., and Souhami, R. L. (1991) Anal. Biochem. 193, 131-134) based on the principle that, following complete denaturation of linear pBR322 DNA (˜4,300 bp) to the single-stranded (SS) form, an interstrand cross-link results in renaturation to double-stranded (DS) in a neutral gel.
Closed-circular DNA was linearized with HindIII, then dephosphorylated and finally 5′-singly end-labelled using [γ^32P]-ATP and polynucleotide kinase. Reactions containing 30-40 ng of DNA and the test compound were carried out in aqueous TEOA (25 mM triethanolamine, 1 mM EDTA, pH 7.2) buffer at 37° C. in a final volume of 50 μl for 2 hours. Reactions were terminated by addition of an equal volume of stop solution (0.6 M NaOAc, 20 mM EDTA, 100 μg/ml tRNA) followed by precipitation with ethanol. Following centrifugation, the supernatant was discarded and the pellet dried by lyophilization. Samples were re-suspended in 10 μl of strand separation buffer (30% DMSO, 1 mM EDTA, 0.04% bromophenol blue and 0.04% xylene cylanol) and denatured by heating to 90° C. for 2.5 min, followed by immersion in an ice/water bath. Control non-denatured samples were re-suspended in 10 μl of non-denaturing buffer solution (0.6% sucrose, 0.04% bromophenol blue in aqueous TAE buffer [40 mM Tris, 20 mM acetic acid, 2 mM EDTA, pH 8.1]) and loaded directly onto the gel for comparison.
Electrophoresis was carried out for 14-16 h at 40 V using a 0.8% submerged agarose gel (20×25×0.5 cm) in TAE buffer. Gels were dried under vacuum for 2 hour at 80° C. onto one layer each of Whatman 3MM and DE8I filter papers using a BioRad 583 gel dryer. Autoradiographs were obtained after exposure of Hyperfilm-MP film (Amersham plc, U.K.) to the dried gel for either 4 hour with a screen (or over night, without a screen, to obtain a sharper image). Film bands were quantitated using a BioRad GS-670 imaging laser densitometer. Percentage cross-linking was calculated by measuring the total DNA in each lane (summed density for the double-stranded [DS] and single-stranded [SS] bands) relative to the amount of cross-linked DNA (density of DS band alone). A dose-response curve was derived by plotting drug concentration against the determined percentage level of cross-linked DNA which was then analysed to determine the concentration of test compound that results in 50% cross-linked plasmid DNA (XL50).

[1] = test system: K562 human chronic myeloid leukaemia cells; assay: In vitro cytotoxicity, K562 cells, MTT assay; format: cell-based
Description: K562 human chronic myeloid leukaemia cells were maintained in RPM1 1640 medium supplemented with 10% fetal calf serum and 2 mM glutamine at 37° C. in a humidified atmosphere containing 5% CO2 and were incubated with a specified dose of drug for 1 hour or 96 hours at 37° C. in the dark. The incubation was terminated by centrifugation (5 min, 300 g) and the cells were washed once with drug-free medium. Following the appropriate drug treatment, the cells were transferred to 96-well microtiter plates (10^4 cells per well, 8 wells per sample). Plates were then kept in the dark at 37° C. in a humidified atmosphere containing 5% CO2. The assay is based on the ability of viable cells to reduce a yellow soluble tetrazolium salt, 3-(4,5-dimethylthiazol-2-yl)-2,5-diphenyl-2H-tetrazolium bromide (MTT, Aldrich-Sigma), to an insoluble purple formazan precipitate. Following incubation of the plates for 4 days (to allow control cells to increase in number by approximately 10 fold), 20 μL of MTT solution (5 mg/mL in phosphate-buffered saline) was added to each well and the plates further incubated for 5 hours. The plates were then centrifuged for 5 minutes at 300 g and the bulk of the medium pipetted from the cell pellet leaving 10-20 μL per well. DMSO (200 μL) was added to each well and the samples agitated to ensure complete mixing. The optical density was then read at a wavelength of 550 nm on a Titertek Multiscan ELISA plate reader, and a dose-response curve was constructed. For each curve, an IC50 value was read as the dose required to reduce the final optical density to 50% of the control value.

[2] = test system: approximately 60 human tumour cell lines; assay: NCI 60 cell screen, SRB assay; format: cell-based; details: 48 hour continuous exposure
Description: The National Cancer Institute (NCI), Bethesda, Md., USA has available an in vitro cytotoxicity screen which consists of approximately 60 human tumour cell lines against which compounds are tested at a minimum of five concentrations each differing 10-fold. A 48 hour continuous exposure protocol is used, where cell viability or growth is estimated with an SRB protein assay.
The test compounds were evaluated against approximately 60 human tumour cell lines. The NCI screening procedures were described in detail by Monks and co-workers (Monks, A et al., Journal of the National Cancer Institute, 1991, 83, 757). Briefly, cell suspensions were diluted according to the particular cell type and the expected target cell density (5000-40,000 cells per well based on cell growth characteristics), and added by pipette (100 μL) into 96-well microtitre plates. The cells were allowed a preincubation period of 24 hours at 37° C. for stabilisation. Dilutions at twice the intended test concentration were added at time zero in 100 μL aliquots to the wells. The test compounds were evaluated at five 10-fold dilutions (10^−4, 10^−5, 10^−6, 10^−7 and 10^−[…]). The test compounds were incubated for 48 hours in 5% CO2 atmosphere and 100% humidity. The cells were then assayed using the sulphorhodamine B assay. A plate reader was used to read the optical densities and a microcomputer processed the readings into GI50 values (in Moles), which is the dosage required to limit cell growth to 50%.

[3] = Homo sapiens, 96 hr exposure, sub-table of 16e-j, read-out: IC50 96 hr exposure
[4] = Homo sapiens, 1 hr exposure, read-out: IC50 1 hr exposure
[5] = Homo sapiens, sub-table of 29a-c

COc1ccc2c(c1)C(=O)N1CCC(OCCCCCCCCCCOC3CCN4C(=O)c5cc(OC)ccc5N=C[C@@H]34)[C@@H]1C=N2 (stereo partly drawn) [Compound 16h, 1,1′-[(Decane-1,10-diyl)dioxy]bis[(11aS)-7-methoxy-1,2,3,11a-tetrahydro-5H-pyrrolo[2,1-c][1,4]benzodiazepine-5-one]]
EC50 (linear pBR322 DNA): 5 µM
IC50 [1, 3]: 0.352 µM
GI50 ([2]; Homo sapiens): 0.054 µM

COc1cc2c(cc1OCCCCCOc1cc3c(cc1OC)N=C[C@@H]1CCCN1C3=O)C(=O)N1CCC[C@H]1C=N2 [Compound 9c, 1,11-[(Pentane-1,5-diyl)dioxy]bis[(11aS)-8-methoxy-1,2,3,11a-tetrahydro-5H-pyrrolo[2,1-c][1,4]benzodiazepine-5-one]]
IC50 ([1]; 1 hr exposure, read-out: IC50 1 hr exposure): > 30 µM
GI50 [2]: 10.2 µM

COc1ccc2c(c1)C(=O)N1CCC(OCCCCCCCCOC3CCN4C(=O)c5cc(OC)ccc5N=C[C@@H]34)[C@@H]1C=N2 (stereo partly drawn) [Compound 16f, 1,1′-[(Octane-1,8-diyl)dioxy]bis[(11aS)-7-methoxy-1,2,3,11a-tetrahydro-5H-pyrrolo[2,1-c][1,4]benzodiazepine-5-one]]
EC50 (linear pBR322 DNA): 1.4 µM
IC50 [1, 3]: 0.0045 µM
GI50 ([2]; Homo sapiens): 0.019 µM

COc1ccc2c(c1)C(=O)N1CCC(OCCCCCCCCCOC3CCN4C(=O)c5cc(OC)ccc5N=C[C@@H]34)[C@@H]1C=N2 (stereo partly drawn) [Compound 16g, 1,1′-[(Nonane-1,9-diyl)dioxy]bis[(11aS)-7-methoxy-1,2,3,11a-tetrahydro-5H-pyrrolo[2,1-c][1,4]benzodiazepine-5-one]]
EC50 (linear pBR322 DNA): 1.5 µM
IC50 [1, 3]: 0.026 µM
GI50 ([2]; Homo sapiens): 0.019 µM

COc1ccc2c(c1)C(=O)N1CCC(OCCCCCCCCCCCOC3CCN4C(=O)c5cc(OC)ccc5N=C[C@@H]34)[C@@H]1C=N2 (stereo partly drawn) [Compound 16i, 1,1′-[(Undecane-1,11-diyl)dioxy]bis[(11aS)-7-methoxy-1,2,3,11a-tetrahydro-5H-pyrrolo[2,1-c][1,4]benzodiazepine-5-one]]
IC50 [1, 3]: 0.689 µM
GI50 ([2]; Homo sapiens): 0.22 µM

COc1ccc2c(c1)C(=O)N1CCC(OCCCCCOC3CCN4C(=O)c5cc(OC)ccc5N=C[C@@H]34)[C@@H]1C=N2 (stereo partly drawn) [Compound 16c, 1,1′-[(Pentane-1,5-diyl)dioxy]bis[(11aS)-7-methoxy-1,2,3,11a-tetrahydro-5H-pyrrolo[2,1-c][1,4]benzodiazepine-5-one]]
EC50 (linear pBR322 DNA): 0.07 µM
IC50 [1, 4]: 0.5 µM
GI50 ([2]; Homo sapiens): 0.015 µM

COc1ccc2c(c1)N=C[C@H]1C(OCCCCCCCCCCOC3CCN4C(=O)c5ccc(OC)cc5N=C[C@@H]34)CCN1C2=O (stereo partly drawn) [Compound 9h, 1,1′-[(Decane-1,10-diyl)dioxy]bis[(11aS)-8-methoxy-1,2,3,11a-tetrahydro-5H-pyrrolo[2,1-c][1,4]benzodiazepine-5-one]]
EC50 (linear pBR322 DNA): 0.17 µM
IC50 [1, 4]: 16.1 µM
GI50 ([2]; Homo sapiens): 1.12 µM

COc1ccc2c(c1)N=C[C@H]1C(OCCCCCCCCCOC3CCN4C(=O)c5ccc(OC)cc5N=C[C@@H]34)CCN1C2=O (stereo partly drawn) [Compound 9g, 1,1′-[(Nonane-1,9-diyl)dioxy]bis[(11aS)-8-methoxy-1,2,3,11a-tetrahydro-5H-pyrrolo[2,1-c][1,4]benzodiazepine-5-one]]
EC50 (linear pBR322 DNA): 0.98 µM
IC50 [1, 4]: 17.3 µM
GI50 ([2]; Homo sapiens): 0.57 µM

COc1ccc2c(c1)N=C[C@H]1C(OCCCCOC3CCN4C(=O)c5ccc(OC)cc5N=C[C@@H]34)CCN1C2=O (stereo partly drawn) [Compound 9b, 1,1′-[(Butane-1,4-diyl)dioxy]bis[(11aS)-8-methoxy-1,2,3,11a-tetrahydro-5H-pyrrolo[2,1-c][1,4]benzodiazepine-5-one]]
IC50 [1, 4]: > 30 µM
GI50 ([2]; Homo sapiens): 28.1 µM

COc1ccc2c(c1)N=C[C@H]1C(OCCCOC3CCN4C(=O)c5ccc(OC)cc5N=C[C@@H]34)CCN1C2=O (stereo partly drawn) [Compound 9a, 1,1′-[(Propane-1,3-diyl)dioxy]bis[(11aS)-8-methoxy-1,2,3,11a-tetrahydro-5H-pyrrolo[2,1-c][1,4]benzodiazepine-5-one]]
EC50 (linear pBR322 DNA): > 100 µM
IC50 [1, 4]: > 30 µM
GI50 ([2]; Homo sapiens): 8.91 µM

COc1ccc2c(c1)C(=O)N1CCC(OCCCCCCCCCCCCOC3CCN4C(=O)c5cc(OC)ccc5N=C[C@@H]34)[C@@H]1C=N2 (stereo partly drawn) [Compound 16j, 1,1′-[(Dodecane-1,12-diyl)dioxy]bis[(11aS)-7-methoxy-1,2,3,11a-tetrahydro-5H-pyrrolo[2,1-c][1,4]benzodiazepine-5-one]]
IC50 [1, 3]: 0.645 µM
GI50 ([2]; Homo sapiens): 0.15 µM

C=C1CN2C(=O)c3cc(OC)ccc3N=C[C@H]2C1OCCCCCCCCCOC1C(=C)CN2C(=O)c3cc(OC)ccc3N=C[C@@H]12 (stereo partly drawn) [Compound 29b, 1,1′-[(Nonane-1,9-diyl)dioxy]bis[(11aS)-7-methoxy-2-methylene-1,2,3,11a-tetrahydro-5H-pyrrolo[2,1-c][1,4]benzodiazepine-5-one]]
EC50 (linear pBR322 DNA): 1.5 µM
IC50 ([1]; Homo sapiens, 96 hr exposure, sub-table of 29a-c, read-out: IC50 96 hr exposure): 0.0338 µM
GI50 [2, 5]: 0.0209 µM

COc1ccc2c(c1)C(=O)N1CCC(OCCCCOC3CCN4C(=O)c5cc(OC)ccc5N=C[C@@H]34)[C@@H]1C=N2 (stereo partly drawn) [Compound 16b, 1,1′-[(Butane-1,4-diyl)dioxy]bis[(11aS)-7-methoxy-1,2,3,11a-tetrahydro-5H-pyrrolo[2,1-c][1,4]benzodiazepine-5-one]]
EC50 (linear pBR322 DNA): 1 µM
IC50 [1, 4]: 2.5 µM
GI50 ([2]; Homo sapiens): 2.51 µM

COc1ccc2c(c1)N=C[C@H]1C(OCCCCCCCCOC3CCN4C(=O)c5ccc(OC)cc5N=C[C@@H]34)CCN1C2=O (stereo partly drawn) [Compound 9f, 1,1′-[(Octane-1,8-diyl)dioxy]bis[(11aS)-8-methoxy-1,2,3,11a-tetrahydro-5H-pyrrolo[2,1-c][1,4]benzodiazepine-5-one]]
EC50 (linear pBR322 DNA): 1.8 µM
IC50 [1, 4]: 9.72 µM
GI50 ([2]; Homo sapiens): 1.17 µM

C=C1CN2C(=O)c3cc(OC)ccc3N=C[C@H]2C1OCCCCCCCCOC1C(=C)CN2C(=O)c3cc(OC)ccc3N=C[C@@H]12 (stereo partly drawn) [Compound 29a, 1,1′-[(Octane-1,8-diyl)dioxy]bis[(11aS)-7-methoxy-2-methylene-1,2,3,11a-tetrahydro-5H-pyrrolo[2,1-c][1,4]benzodiazepine-5-one]]
GI50 [2, 5]: 0.0138 µM

COc1ccc2c(c1)N=C[C@H]1C(OCCCCCCOC3CCN4C(=O)c5ccc(OC)cc5N=C[C@@H]34)CCN1C2=O (stereo partly drawn) [Compound 9d, 1,1′-[(Hexane-1,6-diyl)dioxy]bis[(11aS)-8-methoxy-1,2,3,11a-tetrahydro-5H-pyrrolo[2,1-c][1,4]benzodiazepine-5-one]]
IC50 [1, 4]: > 30 µM
GI50 ([2]; Homo sapiens): 4 µM
